Data from the supplement of paper PMC10307832.

Experiments:
Assay in all cases: relative viability (nuclei count vs DMSO), 5 days (fraction); higher = more cells survive
SW 1573 = test system: SW 1573
Procedure, shortened: (§1)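 One day after seeding in 1536-well plates, lung cancer cell lines were dosed by pin tool. Dosing was either single-drug or a fixed anchor-drug dose plus five library-drug doses (not always all listed) in √10 steps. After 5 days, nuclei were stained in one fix-and-stain step and counted on 4× images, and relative viability is the nuclei count of treated wells over that of vehicle wells, given as the median of duplicate plates.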

NCI-H1793 = test system: NCI-H1793
Procedure, shortened: as §1

NCI-H1975 = test system: NCI-H1975
Procedure, shortened: as §1

NCI-H650 = test system: NCI-H650
Procedure, shortened: as §1

COR-L23 = test system: COR-L23
Procedure, shortened: as §1

NCI-H2023 = test system: NCI-H2023
Procedure, shortened: as §1

NCI-H1993 = test system: NCI-H1993
Procedure, shortened: as §1

LOU-NH91 = test system: LOU-NH91
Procedure, shortened: as §1

BEN = test system: BEN
Procedure, shortened: as §1

NCI-H1395 = test system: NCI-H1395
Procedure, shortened: as §1

HARA = test system: HARA
Procedure, shortened: as §1

RERF-LC-KJ = test system: RERF-LC-KJ
Procedure, shortened: as §1

NCI-H2228 = test system: NCI-H2228
Procedure, shortened: as §1

NCI-H1915 = test system: NCI-H1915
Procedure, shortened: as §1

NCI-H2405 = test system: NCI-H2405
Procedure, shortened: as §1

LU99A = test system: LU99A
Procedure, shortened: as §1

EKVX = test system: EKVX
Procedure, shortened: as §1

A-427 = test system: A-427
Procedure, shortened: as §1

NCI-H1666 = test system: NCI-H1666
Procedure, shortened: as §1

NCI-H1650 = test system: NCI-H1650
Procedure, shortened: as §1

NCI-H460 = test system: NCI-H460
Procedure, shortened: as §1

NCI-H838 = test system: NCI-H838
Procedure, shortened: as §1

Which relative viability (SW 1573; first compound 0.2 µM) does the source give for `COCC1(CO)C(=O)C2CCN1CC2` (stereo not given) [PRIMA-1MET] + CS(=O)(=O)CCNCc1ccc(-c2ccc3ncnc(Nc4ccc(OCc5cccc(F)c5)c(Cl)c4)c3c2)o1 [Lapatinib] (partner 2 µM) here?
Its relative viability is 1.26.

And the relative viability (SW 1573; first compound 0.6325 µM)?
The relative viability was 1.04.

What about the relative viability (SW 1573; first compound 2 µM) of the same compound?
Its relative viability is 0.999.

What about the relative viability (SW 1573; first compound 6.325 µM) of the same compound?
The relative viability was 0.691.

And the relative viability (SW 1573; first compound 20 µM)?
Its relative viability is 0.0423.

And the relative viability (NCI-H1793; first compound 0.2 µM)?
The relative viability was 0.707.

What about the relative viability (NCI-H1793; first compound 0.6325 µM) of the same compound?
Its relative viability is 0.68.

And the relative viability (NCI-H1793; first compound 6.325 µM)?
Its relative viability is 0.592.

And the relative viability (NCI-H1793; first compound 20 µM)?
Its relative viability is 0.646.

And the relative viability (NCI-H1975; first compound 0.2 µM)?
The relative viability was 0.988.

What about the relative viability (NCI-H1975; first compound 0.6325 µM) of the same compound?
The relative viability was 0.786.

What about the relative viability (NCI-H1975; first compound 2 µM) of the same compound?
The relative viability was 0.774.

What about the relative viability (NCI-H1975; first compound 6.325 µM) of the same compound?
The relative viability was 0.947.

And the relative viability (NCI-H1975; first compound 20 µM)?
Its relative viability is 0.816.

What about the relative viability (NCI-H650; first compound 0.2 µM) of the same compound?
The relative viability was 1.24.

What about the relative viability (NCI-H650; first compound 2 µM) of the same compound?
Its relative viability is 0.914.

What about the relative viability (NCI-H650; first compound 6.325 µM) of the same compound?
The relative viability was 0.871.

And the relative viability (NCI-H650; first compound 20 µM)?
Its relative viability is 0.0916.

And the relative viability (COR-L23; first compound 0.2 µM)?
Its relative viability is 1.11.

What about the relative viability (COR-L23; first compound 0.6325 µM) of the same compound?
Its relative viability is 0.922.

What about the relative viability (COR-L23; first compound 2 µM) of the same compound?
The relative viability was 0.941.

And the relative viability (COR-L23; first compound 6.325 µM)?
Its relative viability is 1.17.

What about the relative viability (COR-L23; first compound 20 µM) of the same compound?
The relative viability was 0.0199.

What about the relative viability (NCI-H2023; first compound 0.2 µM) of the same compound?
Its relative viability is 0.991.

And the relative viability (NCI-H2023; first compound 0.6325 µM)?
The relative viability was 0.26.

And the relative viability (NCI-H2023; first compound 2 µM)?
Its relative viability is 0.639.

What about the relative viability (NCI-H2023; first compound 6.325 µM) of the same compound?
Its relative viability is 0.893.

What about the relative viability (NCI-H2023; first compound 20 µM) of the same compound?
Its relative viability is 0.841.

What about the relative viability (NCI-H1993; first compound 0.2 µM) of the same compound?
The relative viability was 0.776.

What about the relative viability (NCI-H1993; first compound 0.6325 µM) of the same compound?
Its relative viability is 0.776.

And the relative viability (NCI-H1993; first compound 2 µM)?
Its relative viability is 0.731.

And the relative viability (NCI-H1993; first compound 6.325 µM)?
The relative viability was 0.771.

What about the relative viability (NCI-H1993; first compound 20 µM) of the same compound?
The relative viability was 0.759.

What about the relative viability (LOU-NH91; first compound 0.2 µM) of the same compound?
The relative viability was 0.806.

What about the relative viability (LOU-NH91; first compound 0.6325 µM) of the same compound?
Its relative viability is 0.715.

What about the relative viability (LOU-NH91; first compound 2 µM) of the same compound?
Its relative viability is 0.656.

What about the relative viability (LOU-NH91; first compound 6.325 µM) of the same compound?
The relative viability was 0.692.

What about the relative viability (LOU-NH91; first compound 20 µM) of the same compound?
The relative viability was 0.496.

And the relative viability (BEN; first compound 0.2 µM)?
The relative viability was 0.786.

And the relative viability (BEN; first compound 0.6325 µM)?
The relative viability was 0.774.

What about the relative viability (BEN; first compound 6.325 µM) of the same compound?
Its relative viability is 0.82.

And the relative viability (BEN; first compound 20 µM)?
Its relative viability is 0.687.

And the relative viability (NCI-H1395; first compound 0.2 µM)?
The relative viability was 0.922.

And the relative viability (NCI-H1395; first compound 0.6325 µM)?
The relative viability was 0.701.

And the relative viability (NCI-H1395; first compound 2 µM)?
The relative viability was 1.09.

What about the relative viability (NCI-H1395; first compound 6.325 µM) of the same compound?
The relative viability was 0.89.

What about the relative viability (NCI-H1395; first compound 20 µM) of the same compound?
Its relative viability is 0.908.

And the relative viability (HARA; first compound 0.2 µM)?
The relative viability was 0.782.

What about the relative viability (HARA; first compound 0.6325 µM) of the same compound?
Its relative viability is 0.649.

What about the relative viability (HARA; first compound 6.325 µM) of the same compound?
Its relative viability is 0.804.

What about the relative viability (HARA; first compound 20 µM) of the same compound?
The relative viability was 0.706.

What about the relative viability (RERF-LC-KJ; first compound 0.2 µM) of the same compound?
The relative viability was 1.01.

What about the relative viability (RERF-LC-KJ; first compound 0.6325 µM) of the same compound?
Its relative viability is 0.86.

What about the relative viability (RERF-LC-KJ; first compound 2 µM) of the same compound?
The relative viability was 0.874.

What about the relative viability (RERF-LC-KJ; first compound 6.325 µM) of the same compound?
Its relative viability is 0.928.

And the relative viability (RERF-LC-KJ; first compound 20 µM)?
The relative viability was 0.883.

And the relative viability (NCI-H2228; first compound 0.2 µM)?
The relative viability was 1.12.

What about the relative viability (NCI-H2228; first compound 0.6325 µM) of the same compound?
The relative viability was 0.834.

What about the relative viability (NCI-H2228; first compound 2 µM) of the same compound?
The relative viability was 1.59.

And the relative viability (NCI-H2228; first compound 6.325 µM)?
Its relative viability is 1.23.

And the relative viability (NCI-H2228; first compound 20 µM)?
The relative viability was 0.0337.

And the relative viability (NCI-H1915; first compound 0.2 µM)?
Its relative viability is 1.07.

And the relative viability (NCI-H1915; first compound 0.6325 µM)?
The relative viability was 0.845.

And the relative viability (NCI-H1915; first compound 2 µM)?
Its relative viability is 0.864.

What about the relative viability (NCI-H1915; first compound 6.325 µM) of the same compound?
The relative viability was 0.925.

And the relative viability (NCI-H1915; first compound 20 µM)?
Its relative viability is 0.958.

What about the relative viability (NCI-H2405; first compound 0.2 µM) of the same compound?
The relative viability was 0.77.

And the relative viability (NCI-H2405; first compound 0.6325 µM)?
Its relative viability is 1.17.

What about the relative viability (NCI-H2405; first compound 6.325 µM) of the same compound?
Its relative viability is 0.85.

What about the relative viability (NCI-H2405; first compound 20 µM) of the same compound?
The relative viability was 0.0796.

What about the relative viability (LU99A; first compound 0.2 µM) of the same compound?
Its relative viability is 1.1.

And the relative viability (LU99A; first compound 0.6325 µM)?
The relative viability was 0.905.

And the relative viability (LU99A; first compound 2 µM)?
The relative viability was 0.955.

What about the relative viability (LU99A; first compound 6.325 µM) of the same compound?
Its relative viability is 0.91.

And the relative viability (LU99A; first compound 20 µM)?
Its relative viability is 0.0802.

What about the relative viability (EKVX; first compound 0.2 µM) of the same compound?
The relative viability was 0.244.

And the relative viability (EKVX; first compound 0.6325 µM)?
Its relative viability is 0.202.

And the relative viability (EKVX; first compound 2 µM)?
The relative viability was 0.174.

What about the relative viability (EKVX; first compound 6.325 µM) of the same compound?
The relative viability was 0.213.

What about the relative viability (EKVX; first compound 20 µM) of the same compound?
Its relative viability is 0.201.

And the relative viability (A-427; first compound 0.2 µM)?
The relative viability was 1.08.

And the relative viability (A-427; first compound 0.6325 µM)?
The relative viability was 0.849.

And the relative viability (A-427; first compound 2 µM)?
Its relative viability is 0.895.

And the relative viability (A-427; first compound 6.325 µM)?
Its relative viability is 1.02.

And the relative viability (A-427; first compound 20 µM)?
The relative viability was 0.982.

And the relative viability (NCI-H1666; first compound 0.2 µM)?
Its relative viability is 0.765.

And the relative viability (NCI-H1666; first compound 0.6325 µM)?
The relative viability was 0.584.

What about the relative viability (NCI-H1666; first compound 2 µM) of the same compound?
Its relative viability is 0.596.

What about the relative viability (NCI-H1666; first compound 6.325 µM) of the same compound?
Its relative viability is 0.688.

And the relative viability (NCI-H1666; first compound 20 µM)?
The relative viability was 0.275.

What about the relative viability (NCI-H1650; first compound 0.2 µM) of the same compound?
Its relative viability is 0.84.

And the relative viability (NCI-H1650; first compound 0.6325 µM)?
Its relative viability is 0.378.

And the relative viability (NCI-H1650; first compound 2 µM)?
The relative viability was 0.426.

What about the relative viability (NCI-H1650; first compound 6.325 µM) of the same compound?
The relative viability was 0.647.

What about the relative viability (NCI-H1650; first compound 20 µM) of the same compound?
The relative viability was 0.81.

What about the relative viability (NCI-H460; first compound 0.2 µM) of the same compound?
The relative viability was 0.993.

And the relative viability (NCI-H460; first compound 0.6325 µM)?
The relative viability was 0.826.

What about the relative viability (NCI-H460; first compound 2 µM) of the same compound?
Its relative viability is 0.893.

And the relative viability (NCI-H460; first compound 6.325 µM)?
The relative viability was 0.607.

And the relative viability (NCI-H460; first compound 20 µM)?
The relative viability was 0.0047.

What about the relative viability (NCI-H838; first compound 0.2 µM) of the same compound?
The relative viability was 1.23.

What about the relative viability (NCI-H838; first compound 0.6325 µM) of the same compound?
The relative viability was 0.913.

And the relative viability (NCI-H838; first compound 2 µM)?
Its relative viability is 0.801.

And the relative viability (NCI-H838; first compound 6.325 µM)?
The relative viability was 1.06.

What about the relative viability (NCI-H838; first compound 20 µM) of the same compound?
The relative viability was 0.197.
